The text below walks through data of patent US20110130388A1, “PROPHYLACTIC OR THERAPEUTIC AGENT FOR AXIAL MYOPIA” (priority 2008, published 2011).

One assay deals with axial length extension. The note with it: animal experiments; cited from earlier work.
Another assay deals with progress of myopia. The note with it: reported in Taiwan; cited from earlier work.
Assay [1] concerns chicken model of form-deprivation myopia. Kind of assay: Axial length suppression test with chicken model of form-deprivation myopia (I), intravitreal injection. The note with it: hydroxyfasudil 20 μL intravitreally once a week (about 1 μM in the eye), four weeks after induction of myopia, N = 7, * P < 0.05 vs control. It is filed as in vivo, chicks (white leghorn). The source says: Chicks (white leghorn) 6 days of age were obtained, and one eye of each chick was covered with a mask hand-made of vinyl tape. The right eye of every chick was covered, and the left eye was used as a control. The chicks were kept under usual breeding conditions.
As a Rho kinase inhibitor, Y27632 dihydrochloride (made by Wako Pure Chemical Industries; see the above formula (I); hereinafter, abbreviated to “Y27632”) and hydroxyfasudil hydrochloride (made by SIGMA; see the above formula (III); hereinafter, abbreviated to “hydroxyfasudil”) were used. Y27632 was prepared at 50 μM in saline. Hydroxyfasudil was prepared at 1 mM in saline. To the control, saline was administered.
Into the vitreous chambers of the chicks to which myopia was being induced by the mask, Y27632 or hydroxyfasudil was injected once a week (every 7 days). Specifically, to the chicks under anesthesia with Ketalar (registered trademark) and Selactar (registered trademark), injection to a site about 2 mm off the corneal ring was performed with use of a syringe for insulin injection.
To the Y27632 treatment group, 50 μL of the 50 μM Y27632 solution was intravitreally injected. Since the chick eyeball volume is about 1 mL, the final concentration of Y27632 in the eye was about 2.5 μM. To a control group not treated with Y27632, 50 μL of saline was intravitreally injected.
To the hydroxyfasudil treatment group, 20 μL of a diluted hydroxyfasudil solution prepared by diluting 1 μL of the 1 mM hydroxyfasudil solution to 20 μL was intravitreally injected. Since the chick eyeball volume is about 1 mL, the final concentration of hydroxyfasudil in the eye was about 1 μM. To a control group not treated with hydroxyfasudil, 20 μL of saline was intravitreally injected.
Four weeks after the induction of myopia, the chicks were sacrificed. The eyeballs were enucleated and the right eyeball and the left eyeball were measured for the size with a caliper. The degree of axial myopia was evaluated based on the axial length and the greatest transverse diameter. The differences of the axial length and the greatest transverse diameter between the right eye and the left eye were calculated to indicate the degree of myopia. Between the groups treated with the above-mentioned drugs and the respective control groups, the degree of myopia induction was compared.

For assay [2] the test system is unchanged. The assay can be described thus: Axial length suppression test with chicken model of form-deprivation myopia (II), ophthalmic instillation. It is filed as in vivo, chicks (white leghorn). The note with it: hydroxyfasudil 500 nmol/1000 μL, 1 drop (about 5 μl) instilled once daily for 4 weeks, N = 10, * P < 0.05, t-test vs control. The source says: Chicken models of form-deprivation myopia were made in the same manner as in Example 1. That is, chicks (white leghorn) 6 days of age were obtained, and one eye of each chick was covered with a mask hand-made of vinyl tape. The right eye of every chick was covered, and the left eye was used as a control. The chicks were kept under usual breeding conditions.
As a Rho kinase inhibitor, hydroxyfasudil hydrochloride (made by SIGMA; see the above formula (III); hereinafter, abbreviated to “hydroxyfasudil”) was used. Hydroxyfasudil was dissolved in BSS Plus (registered trademark, made by Alcon) so that the concentration was 10 mM, and 50 μL of this solution was diluted with saline to 1000 μL. A hydroxyfasudil solution at a concentration of 500 nmol/1000 μL was thus prepared.
To chicks to which myopia was being induced by the mask, hydroxyfasudil was instilled once daily for 4 weeks. Specifically, 1 drop (about 5 μl) of the above-mentioned hydroxyfasudil solution was instilled with use of a syringe with needle for insulin subcutaneous administration, “Low Dose” 30 G (made by Becton, Dickinson and Company). The instillation was performed to the right eye and the left eye.
To the control, BSS Plus was intravitreally injected once a week (every 7 days). Specifically, the intravitreal injection was performed to a superotemporal site about 3 mm off the corneal ring avoiding cartilage tissue of the lens and sclera with use of the above-mentioned “Low Dose”. The injection to the right eye and the left eye was performed 4 times in total.
Four weeks after the induction of myopia, the chicks were sacrificed. The eyeballs were enucleated and the right eyeballs and the left eyeballs were measured for the size with a caliper. The degree of axial myopia was evaluated based on the axial length and the greatest transverse diameter. The differences of the axial length and the greatest transverse diameter between the right eye and the left eye were calculated to indicate the degree of myopia. Between the group treated with hydroxyfasudil and the control group, the degree of myopia induction was compared.

A further assay relates to form-deprivation myopia. As to conditions: animal experiment level; cited from earlier work.
The test system of a further assay is myopia. As to conditions: 2-year clinical trial, children aged 8 to 12; cited from earlier work.

With `CN1[C@@H]2CC[C@H]1C[C@@H](OC(=O)C(CO)c1ccccc1)C2` (stereo partly shown) [Atropine], the Axial length extension result with axial length extension is on record as “suppresses axial length extension”. For the same compound, the Progress of myopia result in the assay with progress of myopia is listed as “statistically significant inhibition of the progress of myopia”.

On to `O=S(=O)(c1cccc2c(O)nccc12)N1CCCNCC1` [Hydroxyfasudil, 1-(1-hydroxy-5-isoquinolinesulfonyl)homopiperazine], for which the “Axial length, average right-left difference” value in assay [1] was 0.37* mm; in assay [1] (listed as hydroxyfasudil), “significantly reduced”; in assay [2] it was 0.61* mm; in assay [2] (listed as hydroxyfasudil) it was “significantly reduced”. Further, the “Greatest transverse diameter, average right-left difference” value in assay [1] is recorded as 0.48* mm; in assay [1] (listed as hydroxyfasudil), “significantly reduced”; in assay [2] it was 0.91* mm; in assay [2] (listed as hydroxyfasudil), “significantly reduced”.

On to `CN1CCN(CC(=O)N2c3ccccc3C(=O)Nc3cccnc32)CC1` [Pirenzepine], for which the “Form-deprivation myopia (axial length extension)” value with form-deprivation myopia is reported as “prevented form-deprivation myopia”. Further, in the assay with myopia, the “Accommodative myopia (refraction of the lens)” value is given as “significant difference” and the Axial length entry is “no significant difference”.
